Source: PubChem BioAssay (NCI)
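Test compounds were applied to cells in 96-well plates for 48 hours at 5 doses. TGI: total growth inhibition.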

Columns and labels:
Experiment in all cases: NCI anticancer screen, dose series, 48 h
786-0 renal = tested on: 786-0 renal
A549 NSCLC = tested on: A549 NSCLC
ACHN renal = tested on: ACHN renal
BT-549 breast = tested on: BT-549 breast
CAKI-1 renal = tested on: CAKI-1 renal
CCRF-CEM leukemia = tested on: CCRF-CEM leukemia
COLO 205 colon = tested on: COLO 205 colon
DU-145 prostate = tested on: DU-145 prostate
EKVX NSCLC = tested on: EKVX NSCLC
HCC-2998 colon = tested on: HCC-2998 colon
HCT-116 colon = tested on: HCT-116 colon
HCT-15 colon = tested on: HCT-15 colon
HL-60(TB) leukemia = tested on: HL-60(TB) leukemia
HOP-62 NSCLC = tested on: HOP-62 NSCLC
HS 578T breast = tested on: HS 578T breast
HT29 colon = tested on: HT29 colon
IGROV1 ovarian = tested on: IGROV1 ovarian
K-562 leukemia = tested on: K-562 leukemia
KM12 colon = tested on: KM12 colon
LOX IMVI melanoma = tested on: LOX IMVI melanoma
MALME-3M melanoma = tested on: MALME-3M melanoma
MCF7 breast = tested on: MCF7 breast
MDA-MB-231 breast = tested on: MDA-MB-231 breast
MDA-MB-435 = tested on: MDA-MB-435
MDA-N = tested on: MDA-N
MOLT-4 leukemia = tested on: MOLT-4 leukemia
NCI-H226 lung = tested on: NCI-H226 lung
NCI-H23 lung = tested on: NCI-H23 lung
NCI-H460 lung = tested on: NCI-H460 lung
NCI-H522 lung = tested on: NCI-H522 lung
NCI/ADR-RES ovarian = tested on: NCI/ADR-RES ovarian
OVCAR-3 ovarian = tested on: OVCAR-3 ovarian
OVCAR-5 ovarian = tested on: OVCAR-5 ovarian
OVCAR-8 ovarian = tested on: OVCAR-8 ovarian
PC-3 prostate = tested on: PC-3 prostate
RPMI-8226 leukemia = tested on: RPMI-8226 leukemia
RXF 393 renal = tested on: RXF 393 renal
SF-295 CNS = tested on: SF-295 CNS
SF-539 CNS = tested on: SF-539 CNS
SK-MEL-28 melanoma = tested on: SK-MEL-28 melanoma
SK-MEL-5 melanoma = tested on: SK-MEL-5 melanoma
SN12C renal = tested on: SN12C renal
SNB-19 CNS = tested on: SNB-19 CNS
SNB-75 CNS = tested on: SNB-75 CNS
SR leukemia = tested on: SR leukemia
SW-620 colon = tested on: SW-620 colon
TK-10 renal = tested on: TK-10 renal
U251 CNS = tested on: U251 CNS
UACC-257 melanoma = tested on: UACC-257 melanoma
UACC-62 melanoma = tested on: UACC-62 melanoma
UO-31 renal = tested on: UO-31 renal
A498 renal = tested on: A498 renal
HOP-92 NSCLC = tested on: HOP-92 NSCLC
M14 melanoma = tested on: M14 melanoma
OVCAR-4 ovarian = tested on: OVCAR-4 ovarian
SK-OV-3 ovarian = tested on: SK-OV-3 ovarian

C=C1C(=O)O[C@H]2C[C@@]3(COC(C)=O)C=COC=C(COC(=O)C(C)C)C3CC12 (stereo partly specified)
TGI (786-0 renal): > 100 µM | TGI (A549 NSCLC): > 100 µM | TGI (ACHN renal): > 100 µM | TGI (BT-549 breast): > 100 µM | TGI (CAKI-1 renal): > 100 µM | TGI (CCRF-CEM leukemia): 63.8 µM | TGI (COLO 205 colon): > 100 µM | TGI (DU-145 prostate): > 100 µM | TGI (EKVX NSCLC): > 100 µM | TGI (HCC-2998 colon): > 100 µM | TGI (HCT-116 colon): > 100 µM | TGI (HCT-15 colon): > 100 µM | TGI (HL-60(TB) leukemia): 63.2 µM | TGI (HOP-62 NSCLC): > 100 µM | TGI (HS 578T breast): > 100 µM | TGI (HT29 colon): > 100 µM | TGI (IGROV1 ovarian): > 100 µM | TGI (K-562 leukemia): > 100 µM | TGI (KM12 colon): > 100 µM | TGI (LOX IMVI melanoma): > 100 µM | TGI (MALME-3M melanoma): > 100 µM | TGI (MCF7 breast): > 100 µM | TGI (MDA-MB-231 breast): > 100 µM | TGI (MDA-MB-435): > 100 µM | TGI (MDA-N): > 100 µM | TGI (MOLT-4 leukemia): > 100 µM | TGI (NCI-H226 lung): > 100 µM | TGI (NCI-H23 lung): > 100 µM | TGI (NCI-H460 lung): > 100 µM | TGI (NCI-H522 lung): > 100 µM | TGI (NCI/ADR-RES ovarian): > 100 µM | TGI (OVCAR-3 ovarian): > 100 µM | TGI (OVCAR-5 ovarian): > 100 µM | TGI (OVCAR-8 ovarian): > 100 µM | TGI (PC-3 prostate): > 100 µM | TGI (RPMI-8226 leukemia): 63.6 µM | TGI (RXF 393 renal): > 100 µM | TGI (SF-295 CNS): > 100 µM | TGI (SF-539 CNS): > 100 µM | TGI (SK-MEL-28 melanoma): > 100 µM | TGI (SK-MEL-5 melanoma): > 100 µM | TGI (SN12C renal): > 100 µM | TGI (SNB-19 CNS): > 100 µM | TGI (SNB-75 CNS): 67.5 µM | TGI (SR leukemia): 91.8 µM | TGI (SW-620 colon): > 100 µM | TGI (TK-10 renal): > 100 µM | TGI (U251 CNS): > 100 µM | TGI (UACC-257 melanoma): > 100 µM | TGI (UACC-62 melanoma): 41.2 µM | TGI (UO-31 renal): > 100 µM

COc1cc(C(C)O)c(S(=O)(=O)CC(C)O)nn1 (stereo unspecified)
TGI (A498 renal): > 100 µM | TGI (A549 NSCLC): > 100 µM | TGI (ACHN renal): > 100 µM | TGI (BT-549 breast): > 100 µM | TGI (CAKI-1 renal): > 100 µM | TGI (CCRF-CEM leukemia): > 100 µM | TGI (COLO 205 colon): > 100 µM | TGI (DU-145 prostate): > 100 µM | TGI (EKVX NSCLC): > 100 µM | TGI (HCC-2998 colon): > 100 µM | TGI (HCT-116 colon): > 100 µM | TGI (HCT-15 colon): > 100 µM | TGI (HL-60(TB) leukemia): > 100 µM | TGI (HOP-92 NSCLC): > 100 µM | TGI (HS 578T breast): > 100 µM | TGI (HT29 colon): > 100 µM | TGI (IGROV1 ovarian): > 100 µM | TGI (K-562 leukemia): > 100 µM | TGI (KM12 colon): > 100 µM | TGI (LOX IMVI melanoma): > 100 µM | TGI (M14 melanoma): > 100 µM | TGI (MALME-3M melanoma): > 100 µM | TGI (MCF7 breast): > 100 µM | TGI (MDA-MB-435): > 100 µM | TGI (MDA-N): > 100 µM | TGI (MOLT-4 leukemia): > 100 µM | TGI (NCI-H226 lung): > 100 µM | TGI (NCI-H23 lung): > 100 µM | TGI (NCI-H460 lung): > 100 µM | TGI (NCI-H522 lung): > 100 µM | TGI (NCI/ADR-RES ovarian): > 100 µM | TGI (OVCAR-3 ovarian): > 100 µM | TGI (OVCAR-4 ovarian): > 100 µM | TGI (OVCAR-5 ovarian): > 100 µM | TGI (OVCAR-8 ovarian): > 100 µM | TGI (RPMI-8226 leukemia): > 100 µM | TGI (RXF 393 renal): > 100 µM | TGI (SF-295 CNS): > 100 µM | TGI (SF-539 CNS): > 100 µM | TGI (SK-MEL-28 melanoma): > 100 µM | TGI (SK-MEL-5 melanoma): > 100 µM | TGI (SK-OV-3 ovarian): > 100 µM | TGI (SN12C renal): > 100 µM | TGI (SNB-19 CNS): > 100 µM | TGI (SR leukemia): > 100 µM | TGI (SW-620 colon): > 100 µM | TGI (TK-10 renal): > 100 µM | TGI (UACC-257 melanoma): > 100 µM | TGI (UACC-62 melanoma): > 100 µM | TGI (UO-31 renal): > 100 µM
